Measured values as given in US11173124B2, “Oral delivery of GLP-1 peptide analogs” (MEDIMMUNE LIMITED, priority 2017, dated 2021).
Starred links: 1 amine or outer side, 2 acyl side, 3 side chain; linkers in the order of their positions; H or OH if unused. Non-standard residues stand in square brackets, D forms with d. Residues, ends and D or L forms follow the SMILES beside them. Groups on a side chain read outwards from the residue. Primed or numbered codes have the meaning given here. ξ: configuration not given here. *: point of attachment. γGlu = O=C(O)[C@H](CCC(=O)[*:2])N[*:1]; αMeF = C[C@](N)(Cc1ccccc1)C(=O)O; ξαMeF = CC(N)(Cc1ccccc1)C(=O)O; αMeK = C[C@](N)(CCCCN)C(=O)O; Lauroyl = CCCCCCCCCCCC(=O)*; ξαMeK = CC(N)(CCCCN)C(=O)O; PEG2′ = not defined here; ξαMeS = CC(N)(CO)C(=O)O; AEEA = NCCOCCOCC(=O)O; Aib = CC(C)(N)C(=O)O

Test system: Caco-2 cells
Assay: Caco-2 study, Permeability (%) of lipidated peptides (Example 3)
Format: in vitro ADME, human
Details: 0.1 mg/mL peptide
From the text: The Caco-2 cell line is a continuous cell line of heterogeneous human epithelial colorectal adenocarcinoma cells, which when cultured under specific conditions, become differentiated and polarized such that their phenotype, morphologically and functionally, resembles the enterocytes lining the small intestine. Caco-2 cells express tight junctions, microvilli, and a number of enzymes and transporters that are characteristic of such enterocytes. Caco-2 cells are most commonly used as a tight junction monolayer that provides a physical and biochemical barrier to the passage of drugs and thus serves as an in vitro model of the human small intestinal mucosa to predict the absorption of orally administered drugs. Caco-2 permeability assays were performed by Cyprotex US, LLC (MA, USA) to assess the efficacy of different permeation enhancers. Caco-2 cells were grown on Transwell filters until a transepithelial electric resistance of ˜1000 ohms/cm^2 was achieved. The cells were incubated for three hours with media containing test samples on the apical (top) side of the cell layer, and with blank media on the basolateral (lower) side of the cell layer. Media from the apical and basolateral sides was collected separately after three hours and evaluated for the amount of peptide present on each side. Table 2 gives the permeability coefficient (Papp) of the various test samples, which include the SEQ ID NO:3 GLP-1 peptide in the presence of different excipients.
A following Caco-2 study was performed to evaluate the permeability of different peptides in the presence of various permeation enhancers. Permeability (%) was calculated by dividing the cumulative amount of molecules transported with the original loading amount. Concentrations of peptides in starting sample and apical and basal solutions after incubation for pre-determined periods were analyzed by HPLC. Sodium chenodeoxycholate at 25 mg/mL effected the highest permeability of each tested peptide (Table 4).

[1] = 5.0 mg/mL Sodium Chenodeoxycholate
[2] = 25 mg/mL Sodium Chenodeoxycholate

| Permeability (%) [1] | Permeability (%) [2] | Compound |
| --- | --- | --- |
| 0% | 14.3% | CC[C@H](C)[C@H](NC(=O)[C@H](Cc1ccccc1)NC(=O)[C@H](CCC(=O)O)NC(=O)[C@H](CCCCNC(=O)COCCOCCNC(=O)COCCOCCNC(=O)CC[C@H](NC(=O)CCCCCCCCCCCCCCCCC(=O)O)C(=O)O)NC(=O)[C@H](C)NC(=O)[C@H](C)NC(=O)[C@H](CCC(=O)O)NC(=O)CNC(=O)[C@H](CCC(=O)O)NC(=O)[C@H](CC(C)C)NC(=O)C(C)(Cc1ccccc1)NC(=O)[C@H](CO)NC(=O)C(C)(CO)NC(=O)[C@@H](NC(=O)[C@H](CC(=O)O)NC(=O)[C@H](CO)NC(=O)[C@@H](NC(=O)C(C)(Cc1ccccc1)NC(=O)[C@H](CO)NC(=O)CNC(=O)[C@H](CCC(=O)O)NC(=O)C(C)(C)NC(=O)[C@@H](N)Cc1c[nH]cn1)[C@@H](C)O)C(C)C)C(=O)N[C@@H](C)C(=O)NC(C)(Cc1ccccc1)C(=O)N[C@H](C(=O)N[C@H](C(=O)NC(C)(CCCCN)C(=O)NCC(=O)NCC(N)=O)C(C)C)C(C)C (stereo partly drawn) [SEQ ID NO: 4, Free-H-[AIB]-EGS-[αMePhe]-TSDV-[αMeSer]-S-[αMePhe]-LEGEAAK[(PEG2)2-γE-Stearate]-EFIA-[αMePhe]-VV-[αMeLys]-GG-amide] |
| 1.7% | 11.6% | CCCCCCCCCCCC(=O)N[C@@H](CCC(=O)NCCOCCOCC(=O)NCCOCCOCC(=O)NCCCC[C@H](NC(=O)[C@H](CC(=O)O)NC(=O)[C@H](CO)NC(=O)[C@@H](NC(=O)C(C)(Cc1ccccc1)NC(=O)[C@H](CO)NC(=O)CNC(=O)[C@H](CCC(=O)O)NC(=O)C(C)(C)NC(=O)[C@@H](N)Cc1c[nH]cn1)[C@@H](C)O)C(=O)N[C@@H](CO)C(=O)N[C@@H](CO)C(=O)N[C@@H](Cc1ccc(O)cc1)C(=O)N[C@@H](CC(C)C)C(=O)N[C@@H](CCC(=O)O)C(=O)NCC(=O)N[C@@H](CCC(=O)O)C(=O)N[C@@H](C)C(=O)N[C@@H](C)C(=O)NC(C)(CCCCN)C(=O)N[C@@H](CCC(=O)O)C(=O)N[C@@H](Cc1ccccc1)C(=O)N[C@H](C(=O)N[C@@H](CCCCNC(=O)COCCOCCNC(=O)COCCOCCNC(=O)CC[C@H](NC(=O)CCCCCCCCCCC)C(=O)O)C(=O)N[C@@H](Cc1c[nH]c2ccccc12)C(=O)N[C@H](C(=O)N[C@H](C(=O)N[C@@H](CCC(=O)O)C(=O)NCC(=O)NCC(N)=O)C(C)C)C(C)C)[C@@H](C)CC)C(=O)O (some centres unmarked) [SEQ ID NO: 8] (H-H[Aib]EGS[ξαMeF]TSDK([AEEA-AEEA-γGlu-Lauroyl])SSYLEGEAA[ξαMeK]EFIK([AEEA-AEEA-γGlu-Lauroyl])WVVEGG-NH2) |
| 3.1% | 13.9% | CCCCCCCCCCCC(=O)N[C@@H](CCC(=O)NCCOCCOCC(=O)NCCOCCOCC(=O)NCCCC[C@H](NC(=O)[C@H](C)NC(=O)[C@@H](NC(=O)[C@H](Cc1ccccc1)NC(=O)[C@H](CCC(=O)O)NC(=O)C(C)(CCCCN)NC(=O)[C@H](C)NC(=O)[C@H](C)NC(=O)[C@H](CCC(=O)O)NC(=O)CNC(=O)[C@H](CCC(=O)O)NC(=O)[C@H](CCCCNC(=O)COCCOCCNC(=O)COCCOCCNC(=O)CC[C@H](NC(=O)CCCCCCCCCCC)C(=O)O)NC(=O)[C@H](Cc1ccc(O)cc1)NC(=O)[C@H](CO)NC(=O)C(C)(CO)NC(=O)[C@@H](NC(=O)[C@H](CC(=O)O)NC(=O)[C@H](CO)NC(=O)[C@@H](NC(=O)C(C)(Cc1ccccc1)NC(=O)[C@H](CO)NC(=O)CNC(=O)[C@H](CCC(=O)O)NC(=O)C(C)(C)NC(=O)[C@@H](N)Cc1c[nH]cn1)[C@@H](C)O)C(C)C)[C@@H](C)CC)C(=O)N[C@H](C(=O)N[C@H](C(=O)N[C@@H](CCC(=O)O)C(=O)NCC(=O)NCC(N)=O)C(C)C)C(C)C)C(=O)O (some centres unmarked) [SEQ ID NO: 9, Free-H-[AIB]-EGS-[αMePhe]-TSDV-[αMeSer]-SYK[(PEG2)2-γE-Lauroyl]-EGEAA-[αMeLys]-EFIAK[(PEG2)2-γE-Lauroyl]-VVEGG-amide] (H-H[Aib]EGS[ξαMeF]TSDV[ξαMeS]SYK([AEEA-AEEA-γGlu-Lauroyl])EGEAA[ξαMeK]EFIAK([AEEA-AEEA-γGlu-Lauroyl])VVEGG-NH2) |

| Compound | Permeability (%) [1] | Permeability (%) [2] |
| --- | --- | --- |
| Free-H-[AIB]-EGS-[αMePhe]-TSDVSK[(PEG2)2-γE-Lauroyl]-YLEGEAA-[αMeLys]-EFIAWK[(PEG2)2-γE-Lauroyl]-VEGG-amide (H-H[Aib]EGS[αMeF]TSDVSK([PEG2′-PEG2′-γGlu-Lauroyl])YLEGEAA[αMeK]EFIAWK([PEG2′-PEG2′-γGlu-Lauroyl])VEGG-NH2) [SEQ ID NO: 7] | 2.1% | 10.3% |
